Laboratory results reported in patent publication US10774053B2, “HIV protease inhibitors” (Gilead Sciences, Inc., priority 2017, dated 2020).

What follows are compounds tested on HIV-1 (IIIB) in MT-4 cells (assay: microbe, parasite or virus in culture). Conditions: Human immunodeficiency virus 1, IIIB, MT4, MT-4 cells, HIV-1; read-out: MT4 EC50.
Format: cell-based
Procedure: Compounds were serially diluted (1:3) in DMSO on 384-well polypropylene plates and further diluted 200-fold into complete RPMI media (10% FBS, 1% P/S) using the Biotek Micro Flow and Agilent ECHO acoustic dispenser. Each plate contained up to 8 test compounds, with negative (No Drug Control) and 5 uM AZT positive controls. MT-4 cells were pre-infected with 10 uL of either RPMI (mock-infected) or a fresh 1:250 dilution of an HIV-1 (IIIB) concentrated virus stock. Infected and uninfected MT-4 cells were further diluted in complete RPMI media and added to each plate using a Micro Flow dispenser. After 5 days incubation in a humidified and temperature controlled incubator (37° C.), Cell Titer Glo (Promega) was added to the assay plates to quantify the amount of luciferase.
In the case of `CC(C)(F)C[C@]1(c2ccc(-c3ncccn3)cc2)NC(=N)N([C@H](COC(=O)NC2(C(F)(F)F)CC2)c2ccc(Cl)c(-n3ncnc3C(F)F)c2)C1=O` [Compound 329], the EC50 is reported as 23 nM. `CC(C)(C)C[C@]1(c2ccc(-c3cnn(C(F)F)c3)cc2)NC(=N)N([C@H](COC(=O)NC2(C)CC2)c2ccc(Cl)c(-n3cnc(C4CC4)n3)c2)C1=O` [Compound 239] gave an EC50 of 604 nM. `[2H]C([2H])([2H])OC(=O)NC[C@H](c1ccc(Cl)c(-n2ncnc2C(F)F)c1)N1C(=N)N[C@](CC(C)(C)C(F)(F)F)(c2ccc(-c3cnn(C4CC4)n3)cc2)C1=O` [Compound 393] gave an EC50 of 27 nM. For `CC(C)(C)C[C@]1(c2ccc(-c3cnn(C(F)F)c3)cc2)NC(=N)N([C@H](COC(=O)Nc2ccccc2)c2ccc(Cl)c(-c3ncn[nH]3)c2)C1=O` [Compound 107], the EC50 was 49.1 nM. `CC(C)(C)C[C@]1(c2ccc(-c3cnn(C(F)F)c3)cc2)NC(=N)N([C@H](COC(=O)NC2(C)CC2)c2ccc(Cl)c(-n3ccnn3)c2)C1=O` [Compound 260] showed an EC50 of 32.4 nM. `CN(C)C(=O)OC[C@H](c1ccc(Cl)c(-c2ncc(-c3ccccc3)s2)c1)N1C(=N)N[C@@](c2cc(F)cc(F)c2)(C2CC2)C1=O` [Compound 2] showed an EC50 of 3000 nM. Work on `CC(C)(C)C[C@]1(c2ccc(-c3cnn(C4CC4)c3)cc2)NC(=N)N([C@H](COC(=O)NC(C)(C)C(F)F)c2ccc(Cl)c(-c3ncn[nH]3)c2)C1=O` [Compound 79] yielded an EC50 of 64.5 nM. In the case of `CC(C)(C)C[C@]1(c2ccc(-c3cnsc3)cc2)NC(=N)N([C@H](COC(=O)NC2(C(F)(F)F)CC2)c2ccc(Cl)c(-c3ncnn3C(F)F)c2)C1=O` [Compound 119], the EC50 is reported as 10.3 nM. With `C[C@H](NC(=O)OC[C@H](c1ccc(Cl)c(-n2ncnc2C(F)F)c1)N1C(=N)N[C@](CC(C)(C)C)(c2ccn3nccc3c2)C1=O)C(F)(F)F` [Compound 367] the EC50 was 19 nM. Compound `CC(C)(C)C[C@]1(c2ccc(-c3cnn(C(F)F)c3)cc2)NC(=N)N([C@H](COC(=O)NC2(C(F)F)CC2)c2ccc(Cl)c(-c3ncn[nH]3)c2)C1=O` [Compound 93] has an EC50 of 105 nM. Compound `CC(C)(C)C[C@]1(c2ccc(-c3ncccn3)cc2)NC(=N)N([C@H](COC(=O)NC(C)(C)C(F)F)c2ccc(Cl)c(-c3ncnn3C(F)F)c2)C1=O` [Compound 125] has an EC50 of 12 nM. With `CC(C)(C)C[C@]1(c2ccc(-c3cnn(C(F)F)c3)cc2)NC(=N)N([C@H](COC(=O)NC2CC2)c2ccc(Cl)c(-c3ncnn3C3CC3)c2)C1=O` [Compound 38] the EC50 was 9.83 nM. With `CN(C)C(=O)OC[C@H](c1ccc(Cl)c(-c2ncc(N3CCOCC3)s2)c1)N1C(=N)N[C@@](c2cc(F)cc(F)c2)(C2CC2)C1=O` [Compound 3] the EC50 was 5710 nM. `CC(C)(C)C[C@]1(c2ccc(-c3ncccn3)cc2)NC(=N)N([C@H](COC(=O)N2CC(F)(F)C2)c2ccc(Cl)c(-c3ncn[nH]3)c2)C1=O` [Compound 104] was tested, and the EC50 was 33.5 nM. For `[H]/N=C1\N[C@](CC(C)(C)C)(c2ccc(-c3cnn(C4CC4)c3)cc2)C(=O)N1[C@H](COC(=O)N1CC(F)(F)C1)c1ccc(Cl)c(-c2ccccn2)c1` [Compound 49], the EC50 was 68.1 nM. `CC(C)(Cl)C[C@]1(c2ccc(-c3cnn(C(F)F)c3)cc2)NC(=N)N([C@H](COC(=O)NC2(C(F)(F)F)CC2)c2ccc(Cl)c(-c3ncnn3C(F)F)c2)C1=O` [Compound 145] showed an EC50 of 228 nM. `CC(C)(C)C[C@]1(c2ccc(-c3ccc(S(C)(=O)=O)cc3)c(F)c2)NC(=N)N([C@H](COC(=O)NC2(C(F)(F)F)CC2)c2ccc(Cl)c(-n3ncnc3C(F)F)c2)C1=O` [Compound 313] was tested, and the EC50 was 19.5 nM. `CC1(NC(=O)OC[C@H](c2ccc(Cl)c(-n3cccn3)c2)N2C(=N)N[C@](CC(C)(C)C(F)(F)F)(c3ccc(Cl)cc3)C2=O)CC1` [Compound 263] gave an EC50 of 748 nM. `CC(C)(C)C[C@]1(c2ccc(-c3cnn(C(F)F)c3)cc2)NC(=N)N([C@H](COC(=O)NC(C)(C)C(F)(F)F)c2ccc(Cl)c(-c3ncnn3C(F)F)c2)C1=O` [Compound 115] was tested, and the EC50 was 11.7 nM. Compound `CC(C)(C)C[C@]1(c2ccc(-c3cnn(C(F)F)c3)cc2)NC(=N)N([C@H](COC(=O)NC2(C)CC2)c2ccc(Cl)c(-n3cnnn3)c2)C1=O` [Compound 266] has an EC50 of 57.4 nM. `CC(C)(C)C[C@]1(c2ccc(-c3ccn4ccnc4c3)cc2)NC(=N)N([C@H](COC(=O)NC2(C(F)(F)F)CC2)c2ccc(Cl)c(-c3ncnn3C(F)F)c2)C1=O` [Compound 120] showed an EC50 of 27.8 nM. Compound `C[C@H](C(=O)NC[C@H](c1ccc(Cl)c(-c2ncnn2C(F)F)c1)N1C(=N)N[C@](CC(C)(C)C(F)(F)F)(c2ccc(-c3cnn(C4CC4)n3)cc2)C1=O)C(F)(F)F` [Compound 161] has an EC50 of 14.3 nM. With `CC(C)(C)C[C@]1(c2ccc(-c3cnn(C(F)F)c3)cc2)NC(=N)N([C@H](COC(=O)N2CC3(COC3)C2)c2ccc(Cl)c(-c3ncn[nH]3)c2)C1=O` [Compound 82] the EC50 was 180 nM. With `CC(C)(C)C[C@]1(c2ccc(-c3cnn(C(F)F)c3)cc2)NC(=N)N([C@H](COC(=O)NC2(C)CC2)c2ccc(Cl)c(-n3ncnc3C3CC3)c2)C1=O` [Compound 252] the EC50 was 20.7 nM. `C[C@@H](C(=O)NC[C@H](c1ccc(Cl)c(-c2ncnn2C(F)F)c1)N1C(=N)N[C@](CC(C)(C)C(F)(F)F)(c2ccc(-c3cnn(C4CC4)n3)cc2)C1=O)C(F)(F)F` [Compound 162] gave an EC50 of 21 nM. Compound `CC(C)(C)C[C@]1(c2ccc(-c3cnn(S(=O)(=O)C4CC4)c3)c(F)c2)NC(=N)N([C@H](COC(=O)NCC(F)(F)F)c2ccc(Cl)c(-n3ncnc3C(F)F)c2)C1=O` [Compound 302] has an EC50 of 18.1 nM. `CC(C)(C)C[C@]1(c2ccc(-c3cnn(C(F)F)c3)cc2)NC(=N)N([C@H](COC(=O)N2CC(C)(C#N)C2)c2ccc(Cl)c(-c3ncn[nH]3)c2)C1=O` [Compound 85] showed an EC50 of 112 nM. In the case of `CC(C)(C)C[C@]1(c2ccc(-c3cnn(C(F)F)c3)cc2)NC(=N)N([C@H](COC(=O)NC2(C)CC2)c2ccc(OC(F)(F)F)c(-n3cncn3)c2)C1=O` [Compound 251], the EC50 is reported as 85.7 nM. With `CC(C)(C)C[C@]1(c2ccc(-c3ccsn3)cc2)NC(=N)N([C@H](COC(=O)NC2(C(F)(F)F)CC2)c2cccc(-n3ncnc3C(F)F)c2)C1=O` [Compound 322] the EC50 was 39 nM. `CC(C)(C)C[C@]1(c2ccc(-c3cnccn3)cc2)NC(=N)N([C@H](COC(=O)NC2(C)CC2)c2ccc(Cl)c(-c3ncn[nH]3)c2)C1=O` [Compound 33] was tested, and the EC50 was 37.2 nM. With `CC(C)(C)C[C@]1(c2ccc(-c3ncn(C4CC4)n3)cc2F)NC(=N)N([C@H](COC(=O)NC2(C(F)(F)F)CC2)c2ccc(Cl)c(-c3ncnn3C(F)F)c2)C1=O` [Compound 142] the EC50 was 10.1 nM. `CC(C)(C)C[C@]1(c2ccc(-c3cn(C4(C(F)(F)F)CC4)nn3)cc2)NC(=N)N([C@H](COC(=O)NC2(C(F)(F)F)CC2)c2ccc(Cl)c(-n3ncnc3C(F)F)c2)C1=O` [Compound 364] gave an EC50 of 21.6 nM. Work on `CC(C)(C)C[C@]1(c2ccc(-c3ncc(F)cn3)cc2)NC(=N)N([C@H](COC(=O)NC2(C(F)(F)F)CC2)c2ccc(Cl)c(-n3ncnc3C(F)F)c2)C1=O` [Compound 275] yielded an EC50 of 12.8 nM. Compound `CC1(NC(=O)OC[C@H](c2ccc(Cl)c(-n3cccn3)c2)N2C(=N)N[C@](CC(C)(C)C(F)(F)F)(c3cc(F)cc(F)c3)C2=O)CC1` [Compound 262] has an EC50 of 1800 nM. `CC(C)(C)C[C@]1(c2cc(F)cc(F)c2)NC(=N)N([C@H](COC(=O)NC2(C)CC2)c2ccc(Cl)c(-n3cc(-c4ccccn4)cn3)c2)C1=O` [Compound 256] was tested, and the EC50 was 554 nM. `CC(C)(C)C[C@]1(c2ccc(-c3nnn(C4CC4)n3)cc2)NC(=N)N([C@H](COC(=O)NC2(C(F)(F)F)CC2)c2ccc(Cl)c(-n3ncnc3C(F)F)c2)C1=O` [Compound 356] gave an EC50 of 19.5 nM. `CC(C)(C)C[C@]1(c2ccc(-c3cnn(C4CC4)c3)cc2)NC(=N)N([C@H](COC(=O)N[C@H]2CC2(F)F)c2ccc(Cl)c(-n3ncnc3C(F)F)c2)C1=O` [Compound 294] gave an EC50 of 8.74 nM. In the case of `CC(C)(C)C[C@]1(c2ccc(-c3ncccn3)cc2F)NC(=N)N([C@H](COC(=O)NC2(C(F)(F)F)CC2)c2ccc(Cl)c(-c3ncn[nH]3)c2)C1=O` [Compound 112], the EC50 is reported as 40.4 nM. Compound `Cn1ccc(-c2ccc([C@@]3(CC(C)(C)C)NC(=N)N([C@H](COC(=O)NCC(F)(F)F)c4ccc(Cl)c(-n5ncnc5C(F)F)c4)C3=O)cc2)n1` [Compound 297] has an EC50 of 10.3 nM. Compound `CC(C)(C)C[C@]1(c2ccc(-c3cnn(C(F)F)c3)cc2)NC(=N)N([C@H](COC(=O)N[C@H]2CC23CC3)c2ccc(Cl)c(-n3ncnc3C(F)F)c2)C1=O` [Compound 342] has an EC50 of 8.92 nM. `CC(C)C[C@]1(c2ccc(-c3cnn(C(F)F)c3)cc2)NC(=N)N([C@H](COC(=O)NC2(C(F)(F)F)CC2)c2ccc(Cl)c(-n3cncn3)c2)C1=O` [Compound 250] was tested, and the EC50 was 29.8 nM. In the case of `CC(C)(C)C[C@]1(c2ccc(-c3cnn(C(F)F)c3)cc2)NC(=N)N([C@H](COC(=O)N[C@@H]2CC23CC3)c2ccc(Cl)c(-n3ncnc3C(F)F)c2)C1=O` [Compound 341], the EC50 is reported as 8.54 nM. With `CC(C)(C)C[C@]1(c2ccc(-c3cnn(C4CC4)c3)c(F)c2)NC(=N)N([C@H](COC(=O)NC2(C(F)(F)F)CC2)c2ccc(Cl)c(-n3ncnc3C(F)F)c2)C1=O` [Compound 306] the EC50 was 10.9 nM. `CC(C)(C)C[C@]1(c2ccc(-c3cnn(C4CC4)c3)c(F)c2)NC(=N)N([C@H](COC(=O)NC2CC2(F)F)c2ccc(Cl)c(-n3ncnc3C(F)F)c2)C1=O` (some centres unmarked) [Compound 298] gave an EC50 of 7.83 nM. In the case of `Cc1ncnn1-c1cc([C@@H](COC(=O)NC2(C(F)F)CC2)N2C(=N)N[C@](CC(C)(C)C)(c3ccc(-c4cnn(C(F)F)c4)cc3)C2=O)ccc1Cl` [Compound 254], the EC50 is reported as 18 nM. For `CC(C)(C)C[C@]1(c2ccc(-c3cn(C4CC4)nc3F)cc2)NC(=N)N([C@H](COC(=O)NC2(C(F)(F)F)CC2)c2ccc(Cl)c(-n3ncnc3C(F)F)c2)C1=O` [Compound 318], the EC50 was 13.2 nM. `CN(C)C(=O)OC[C@H](c1ccc(Cl)c(-c2ncn[nH]2)c1)N1C(=N)N[C@](CC(C)(C)C)(c2ccc(-c3cnn(C(F)F)c3)cc2)C1=O` [Compound 81] gave an EC50 of 31.6 nM.
